# Laboratory results taken from publication PMC9154192 (PLoS Biology, 2022).
# Several values for one entry are separate records, joined by “and”; a condition that tells them apart may be missing. Equal entries are not always repeated. Where two headings read alike, the source gives them in different places.
# Legend:
# M. bovis = assay: microbe, parasite or virus in culture; format: cell-based; details: Mycobacterium tuberculosis variant bovis
# [1] = system: XDR M. tuberculosis (KMRC 00203–00197); format: cell-based, Mycobacterium tuberculosis; details: for log reduction (CFU): 7 days
# M. phocaicum = assay: microbe, parasite or virus in culture; format: cell-based, Mycobacterium phocaicum; details: Mycolicibacterium phocaicum
# XDR M. tuberculosis = format: cell-based, Mycobacterium tuberculosis
# M. neoaurum = assay: microbe, parasite or virus in culture; format: cell-based, Mycobacterium neoaurum; details: Mycolicibacterium neoaurum
# M. tuberculosis H37Rv [2] = format: cell-based, Mycobacterium tuberculosis; details: H37Rv
# Salmonella Paratyphi A = assay: Broth dilution MIC (CLSI); format: cell-based; details: Salmonella enterica; Salmonella Paratyphi A; read-out: MIC
# Source text: (§1) Bacteria (Acinetobacter baumannii NCCP 14782, Citrobacter freundii NCCP 14766, Enterobacter aerogenes NCCP 14761, Escherichia coli NCCP 14762, Escherichia coli O157 NCCP 14541, Klebsiella pneumoniae NCCP 14764, Proteus mirabilis NCCP 14763, Proteus vulgaris NCCP 14765, Pseudomonas aeruginosa NCCP 14781, Salmonella Enteritidis NCCP 14771, Salmonella Paratyphi A NCCP 14759, Salmonella Typhimurium NCCP 16207, Serratia marcescens NCCP 14770, Shigella boydii NCCP 14745, Shigella dysenteriae NCCP 14746, Shigella flexneri NCCP 14744, Shigella sonnei NCCP 14773, Bacillus subtilis NCCP 11101, Corynebacterium diphtheriae NCCP 10353, Staphylococcus aureus MSSA NCCP 14780, Staphylococcus aureus MRSA NCCP 14769, Staphylococcus epidermidis NCCP 14768, Streptococcus pneumoniae NCCP 14774) and fungi (Aspergillus fumigatus NCCP 22454, Candida albicans NCCP 32557, Cryptococcus neoformans NCCP 32559, Microsporum canis NCCP 22454, Rhizopus oryzae NCCP 22458, Saccharomyces cerevisiae NCCP 32558, Trichophyton rubrum NCCP 22456) strains were obtained from the National Culture Collection for Pathogens (NCCP) (Chungbuk, Korea). The MIC of each agent was determined following the Clinical and Laboratory Standards Institute (CLSI).[40]
# Streptococcus pneumoniae = assay: Broth dilution MIC (CLSI); format: cell-based; details: read-out: MIC
# Source text: as §1
# Acinetobacter baumannii = assay: Broth dilution MIC (CLSI); format: cell-based; details: read-out: MIC
# Source text: as §1
# Cryptococcus neoformans = assay: Broth dilution MIC (CLSI); format: cell-based; details: read-out: MIC
# Source text: as §1
# Pseudomonas aeruginosa = assay: Broth dilution MIC (CLSI); format: cell-based; details: read-out: MIC
# Source text: as §1
# Escherichia coli O157 = assay: Broth dilution MIC (CLSI); format: cell-based; details: read-out: MIC
# Source text: as §1
# Shigella dysenteriae = assay: Broth dilution MIC (CLSI); format: cell-based; details: read-out: MIC
# Source text: as §1
# Shigella sonnei = assay: Broth dilution MIC (CLSI); format: cell-based; details: read-out: MIC
# Source text: as §1
# [3] = system: Staphylococcus aureus, MRSA; assay: Broth dilution MIC (CLSI); format: cell-based; details: read-out: MIC
# Source text: as §1
# Saccharomyces cerevisiae = assay: Broth dilution MIC (CLSI); format: cell-based; details: read-out: MIC
# Source text: as §1
# Enterobacter aerogenes = assay: Broth dilution MIC (CLSI); format: cell-based; details: Klebsiella aerogenes; Enterobacter aerogenes; read-out: MIC
# Source text: as §1
# Citrobacter freundii = assay: Broth dilution MIC (CLSI); format: cell-based; details: read-out: MIC
# Source text: as §1
# in vitro [4] = format: cell-based, murine; details: mouse
# Method: (§2) A549 human pulmonary epithelial cells (KCLB 10185), human embryonic kidney (HEK) 293 cells (KCLB 21573), human THP-1 leukemia cells (KCLB 40202), human neuroblastoma SH-SY5Y cells (KCLB 22266), Murine Raw 264.7 macrophages (KCLB 40071), and L929 murine fibroblasts (KCLB 10001) were purchased from the KCLB (Seoul, Korea). Cytotoxicity testing was performed using the MTT assay and the WST-1 cell viability assay as previously described.
# in vitro [5] = format: cell-based; details: human
# Method: as §2
# M. tuberculosis H37Rv [6] = format: in vivo, BALB/c mice; design: Efficacy in BALB/C mouse model of pulmonary tuberculosis, Average / Efficacy in BALB/C mouse model of pulmonary tuberculosis, values of mice 1-6: unit not given here; details: Fig 4C, group dose 30, 6 mice
# M. phlei = assay: microbe, parasite or virus in culture; format: cell-based, Mycobacterium phlei; details: Mycolicibacterium phlei
# M. tuberculosis H37Rv [7] = assay: Luminescence-based microbial cell viability assay; design: species or system Mycobacterium tuberculosis; details: for RLU/50ul (replicates1-3), single values / RLU/ml (×100) / RLU/50ul (average): Fig 2C
# M. tuberculosis H37Ra = assay: microbe, parasite or virus in culture; format: cell-based, Mycobacterium tuberculosis; details: Mycobacterium tuberculosis, H37RA
compound,measurement,setting,value
"NNC(=O)c1ccncc1 [INH, isoniazid, reference compound]",MIC,M. bovis,0.2 µg/mL
same,"CFU (replicates1-3), single values",[1],6900 CFU and 40600 CFU and 43800 CFU and 52100 CFU and 37500 CFU and 35600 CFU and 31700 CFU and 15100 CFU and 27000 CFU and 106000 CFU and 157000 CFU and 148000 CFU and 98000 CFU and 61800 CFU and 75500 CFU and 71000 CFU and 87000 CFU and 97000 CFU
same,log reduction (CFU),[1]; at 12.5 μg/ml,1.0
same,MIC,M. phocaicum,> 100 µg/mL
same,"RFU/200 μl (replicates1-3), single values",XDR M. tuberculosis,29490 RFU/200 μl and 29760 RFU/200 μl and 24060 RFU/200 μl and 22090 RFU/200 μl and 22930 RFU/200 μl and 29240 RFU/200 μl and 29310 RFU/200 μl and 29280 RFU/200 μl and 29510 RFU/200 μl and 51780 RFU/200 μl and 52060 RFU/200 μl and 51260 RFU/200 μl and 49980 RFU/200 μl and 50610 RFU/200 μl and 51510 RFU/200 μl and 51660 RFU/200 μl and 51460 RFU/200 μl and 51820 RFU/200 μl and 56880 RFU/200 μl and 57100 RFU/200 μl and 53750 RFU/200 μl and 53730 RFU/200 μl and 46980 RFU/200 μl and 53520 RFU/200 μl and 53690 RFU/200 μl and 53460 RFU/200 μl and 56940 RFU/200 μl
same,RFU/ml (×104),XDR M. tuberculosis,13.6 RFU/ml (×104) and 25.7 RFU/ml (×104) and 27.0 RFU/ml (×104)
same,antitubercular effect,XDR M. tuberculosis,did not show a significant antitubercular effect
same,MIC,M. neoaurum,3.1 µg/mL
same,CFU/ml (average),"M. tuberculosis H37Rv [2]; Fig 3A, drug conc. 12.5",2420 CFU/ml
same,"Intracellular M. tuberculosis, % (Drug Free = 100.0)","M. tuberculosis H37Rv [2]; Fig 3A, drug conc. 12.5",7.2%
same,CFU/ml (average),"M. tuberculosis H37Rv [2]; Fig 3A, drug conc. 25",203 CFU/ml
same,"Intracellular M. tuberculosis, % (Drug Free = 100.0)","M. tuberculosis H37Rv [2]; Fig 3A, drug conc. 25",0.6%
same,CFU/ml (average),"M. tuberculosis H37Rv [2]; Fig 3B, drug conc. 12.5",2120 CFU/ml
same,"Intracellular M. tuberculosis, % (Drug Free = 100.0)","M. tuberculosis H37Rv [2]; Fig 3B, drug conc. 12.5",6.3%
same,CFU/ml (average),"M. tuberculosis H37Rv [2]; Fig 3B, drug conc. 25",133 CFU/ml
same,"Intracellular M. tuberculosis, % (Drug Free = 100.0)","M. tuberculosis H37Rv [2]; Fig 3B, drug conc. 25",0.4%
same,MIC,Salmonella Paratyphi A,> 100 µg/mL
same,MIC,Streptococcus pneumoniae,> 100 µg/mL
same,MIC,Acinetobacter baumannii,> 100 µg/mL
same,MIC,Cryptococcus neoformans,> 100 µg/mL
same,MIC,Pseudomonas aeruginosa,> 100 µg/mL
same,MIC,Escherichia coli O157,> 100 µg/mL
same,MIC,Shigella dysenteriae,> 100 µg/mL
same,MIC,Shigella sonnei,> 100 µg/mL
same,MIC,[3],> 100 µg/mL
same,MIC,Saccharomyces cerevisiae,> 100 µg/mL
same,MIC,Enterobacter aerogenes,> 100 µg/mL
same,MIC,Citrobacter freundii,> 100 µg/mL
same,CC50,in vitro [4]; L929,> 500 µg/mL
same,CC50,in vitro [4]; Raw264.7,> 500 µg/mL
same,CC50,in vitro [5]; A549,> 500 µg/mL
same,CC50,in vitro [5]; HEK-293,> 500 µg/mL
same,CC50,in vitro [5]; SH-SY5Y,> 500 µg/mL
same,CC50,in vitro [5]; THP-1,> 500 µg/mL
same,"Efficacy in BALB/C mouse model of pulmonary tuberculosis, Average",M. tuberculosis H37Rv [6],226667
same,MIC,M. phlei,> 100 µg/mL
same,"RLU/50ul (replicates1-3), single values",M. tuberculosis H37Rv [7]; drug conc. 0.19,1310 RLU/50ul and 1170 RLU/50ul and 1890 RLU/50ul and 1990 RLU/50ul and 2130 RLU/50ul and 1740 RLU/50ul and 1790 RLU/50ul and 1620 RLU/50ul and 1290 RLU/50ul
same,RLU/ml (×100),M. tuberculosis H37Rv [7]; drug conc. 0.19,331.8 RLU/ml (×100)
same,RLU/50ul (average),"M. tuberculosis H37Rv [7]; drug conc. 0.19, average of each replicate set",2003 RLU/50ul and 1717 RLU/50ul and 1257 RLU/50ul
same,"RLU/50ul (replicates1-3), single values",M. tuberculosis H37Rv [7]; drug conc. 0.39,340 RLU/50ul and 310 RLU/50ul (2×) and 220 RLU/50ul and 250 RLU/50ul and 320 RLU/50ul (3×) and 360 RLU/50ul
same,RLU/ml (×100),M. tuberculosis H37Rv [7]; drug conc. 0.39,61.1 RLU/ml (×100)
same,RLU/50ul (average),"M. tuberculosis H37Rv [7]; drug conc. 0.39, average of each replicate set",263 RLU/50ul and 317 RLU/50ul and 337 RLU/50ul
same,"RLU/50ul (replicates1-3), single values",M. tuberculosis H37Rv [7]; drug conc. 0.78,120 RLU/50ul (3×) and 100 RLU/50ul and 130 RLU/50ul (2×) and 180 RLU/50ul and 150 RLU/50ul and 140 RLU/50ul
same,RLU/ml (×100),M. tuberculosis H37Rv [7]; drug conc. 0.78,26.4 RLU/ml (×100)
same,RLU/50ul (average),"M. tuberculosis H37Rv [7]; drug conc. 0.78, average of each replicate set",143 RLU/50ul and 137 RLU/50ul and 117 RLU/50ul
same,concentration with significant antitubercular effect,M. tuberculosis H37Rv [7]; luminescence-based assay,0.78 µg/mL and 0.39 µg/mL
"COC(=O)[C@@H]1CCC(=O)N1Cc1cc2ccc(OCc3ccccc3)cc2c2cc(OC)c(OC)cc12 [PP3S, Methyl (S)-1-{[3-(Benzyloxy)-6,7-dimethoxy-9-phenanthryl]methyl}-5-oxopyrrolidine-2-carboxylate]",MIC,M. tuberculosis H37Ra,1.6 µg/mL
same,MIC,M. bovis,3.12 µg/mL
same,CFU (log),[1],4.83 and 4.91
same,"CFU (replicates1-3), single values",[1],41000 CFU and 66100 CFU and 72200 CFU and 71300 CFU and 95100 CFU and 88700 CFU and 98900 CFU and 41200 CFU and 40500 CFU and 105000 CFU and 75800 CFU and 72700 CFU and 52300 CFU and 61000 CFU and 63200 CFU and 62900 CFU and 137000 CFU and 98200 CFU
same,log reduction (CFU),[1]; at 0.8 μg/ml,0.5
same,log reduction (CFU),[1]; at 1.6 μg/ml,0.6
same,MIC,M. phocaicum,> 100 µg/mL
same,MIC,M. neoaurum,> 100 µg/mL
same,MIC,Salmonella Paratyphi A,> 100 µg/mL
same,MIC,Streptococcus pneumoniae,> 100 µg/mL
same,MIC,Acinetobacter baumannii,> 100 µg/mL
same,MIC,Cryptococcus neoformans,> 100 µg/mL
same,MIC,Pseudomonas aeruginosa,> 100 µg/mL
same,MIC,Escherichia coli O157,> 100 µg/mL
same,MIC,Shigella dysenteriae,> 100 µg/mL
same,MIC,Shigella sonnei,> 100 µg/mL
same,MIC,[3],> 100 µg/mL
same,MIC,Saccharomyces cerevisiae,> 100 µg/mL
same,MIC,Enterobacter aerogenes,> 100 µg/mL
same,MIC,Citrobacter freundii,> 100 µg/mL
same,CC50,in vitro [4]; L929,> 500 µg/mL
same,CC50,in vitro [4]; Raw264.7,> 500 µg/mL
same,CC50,in vitro [5]; A549,> 500 µg/mL
same,CC50,in vitro [5]; HEK-293,7.8 µg/mL
same,CC50,in vitro [5]; SH-SY5Y,7.8 µg/mL
same,CC50,in vitro [5]; THP-1,> 500 µg/mL
same,MIC,M. phlei,> 100 µg/mL
